Measurements: ChEMBL document CHEMBL5291721, “A preclinical secondary pharmacology resource illuminates target-adverse drug reaction associations of marketed drugs” (Nat Commun, 2023)

How the values were obtained:
[1] = target: T1, Muscarinic acetylcholine receptor M2 (Homo sapiens, UniProt P08172)
T1 sequence (P08172 whole entry): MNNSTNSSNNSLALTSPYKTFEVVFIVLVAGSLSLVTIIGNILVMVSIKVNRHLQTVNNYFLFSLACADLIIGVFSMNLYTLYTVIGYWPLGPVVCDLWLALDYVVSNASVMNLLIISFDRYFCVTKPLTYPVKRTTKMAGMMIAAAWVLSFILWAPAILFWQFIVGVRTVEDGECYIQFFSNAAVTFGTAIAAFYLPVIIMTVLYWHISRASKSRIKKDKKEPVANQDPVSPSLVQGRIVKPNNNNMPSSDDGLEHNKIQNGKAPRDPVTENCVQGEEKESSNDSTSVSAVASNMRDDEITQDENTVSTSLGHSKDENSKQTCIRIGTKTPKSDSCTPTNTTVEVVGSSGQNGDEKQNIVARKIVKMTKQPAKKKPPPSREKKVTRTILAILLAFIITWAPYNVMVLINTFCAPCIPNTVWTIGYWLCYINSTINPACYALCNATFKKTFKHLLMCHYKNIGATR

[2] = target: T2, Alpha-1A adrenergic receptor (Homo sapiens, UniProt P35348); format: functional, cell-based
T2 sequence (P35348 whole entry): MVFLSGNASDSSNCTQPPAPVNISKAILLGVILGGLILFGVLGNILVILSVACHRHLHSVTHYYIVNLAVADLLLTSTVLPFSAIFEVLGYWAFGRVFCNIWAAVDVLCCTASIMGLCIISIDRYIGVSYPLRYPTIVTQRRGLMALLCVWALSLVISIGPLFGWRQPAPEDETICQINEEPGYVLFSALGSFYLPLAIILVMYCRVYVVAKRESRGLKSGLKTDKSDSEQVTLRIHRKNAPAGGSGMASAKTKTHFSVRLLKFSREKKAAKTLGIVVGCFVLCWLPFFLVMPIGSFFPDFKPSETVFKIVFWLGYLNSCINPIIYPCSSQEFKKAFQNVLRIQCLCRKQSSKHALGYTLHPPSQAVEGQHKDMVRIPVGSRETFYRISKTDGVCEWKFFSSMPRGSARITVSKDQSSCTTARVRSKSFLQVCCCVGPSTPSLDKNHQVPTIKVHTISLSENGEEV

[3] = target: Sodium-dependent noradrenaline transporter (Homo sapiens, UniProt P23975)
Sodium-dependent noradrenaline transporter, sequence (P23975 whole entry): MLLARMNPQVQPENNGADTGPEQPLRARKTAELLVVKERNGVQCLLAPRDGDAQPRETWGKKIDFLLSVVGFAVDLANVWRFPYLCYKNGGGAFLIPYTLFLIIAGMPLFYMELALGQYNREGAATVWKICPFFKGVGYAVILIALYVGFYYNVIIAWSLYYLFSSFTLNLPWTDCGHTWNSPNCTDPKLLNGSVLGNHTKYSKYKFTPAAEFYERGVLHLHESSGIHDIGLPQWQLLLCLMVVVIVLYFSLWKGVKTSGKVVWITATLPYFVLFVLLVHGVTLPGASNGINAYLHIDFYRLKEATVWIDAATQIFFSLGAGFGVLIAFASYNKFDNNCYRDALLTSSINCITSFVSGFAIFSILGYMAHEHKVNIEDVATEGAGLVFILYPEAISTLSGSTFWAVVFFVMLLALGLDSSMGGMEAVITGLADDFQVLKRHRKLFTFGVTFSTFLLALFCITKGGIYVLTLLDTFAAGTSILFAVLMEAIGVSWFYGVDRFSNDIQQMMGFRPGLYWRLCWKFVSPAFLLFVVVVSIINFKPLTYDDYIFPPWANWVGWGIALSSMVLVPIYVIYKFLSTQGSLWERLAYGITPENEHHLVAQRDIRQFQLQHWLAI

D(3) dopamine receptor = D(3) dopamine receptor (Homo sapiens, UniProt P35462)
D(3) dopamine receptor, sequence (P35462 whole entry): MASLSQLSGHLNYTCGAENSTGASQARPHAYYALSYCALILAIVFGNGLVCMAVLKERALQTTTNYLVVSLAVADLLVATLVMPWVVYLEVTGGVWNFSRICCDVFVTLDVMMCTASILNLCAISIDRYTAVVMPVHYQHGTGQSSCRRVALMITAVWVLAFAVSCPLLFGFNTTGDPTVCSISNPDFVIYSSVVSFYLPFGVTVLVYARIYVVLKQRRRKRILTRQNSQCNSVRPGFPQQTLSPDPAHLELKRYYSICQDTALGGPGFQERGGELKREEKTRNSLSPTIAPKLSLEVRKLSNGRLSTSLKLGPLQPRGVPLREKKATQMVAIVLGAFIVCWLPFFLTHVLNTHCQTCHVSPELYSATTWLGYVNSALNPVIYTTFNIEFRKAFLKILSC

[4] = target: Prostaglandin G/H synthase 1 (Homo sapiens, UniProt P23219); format: functional
Prostaglandin G/H synthase 1, sequence (P23219 whole entry): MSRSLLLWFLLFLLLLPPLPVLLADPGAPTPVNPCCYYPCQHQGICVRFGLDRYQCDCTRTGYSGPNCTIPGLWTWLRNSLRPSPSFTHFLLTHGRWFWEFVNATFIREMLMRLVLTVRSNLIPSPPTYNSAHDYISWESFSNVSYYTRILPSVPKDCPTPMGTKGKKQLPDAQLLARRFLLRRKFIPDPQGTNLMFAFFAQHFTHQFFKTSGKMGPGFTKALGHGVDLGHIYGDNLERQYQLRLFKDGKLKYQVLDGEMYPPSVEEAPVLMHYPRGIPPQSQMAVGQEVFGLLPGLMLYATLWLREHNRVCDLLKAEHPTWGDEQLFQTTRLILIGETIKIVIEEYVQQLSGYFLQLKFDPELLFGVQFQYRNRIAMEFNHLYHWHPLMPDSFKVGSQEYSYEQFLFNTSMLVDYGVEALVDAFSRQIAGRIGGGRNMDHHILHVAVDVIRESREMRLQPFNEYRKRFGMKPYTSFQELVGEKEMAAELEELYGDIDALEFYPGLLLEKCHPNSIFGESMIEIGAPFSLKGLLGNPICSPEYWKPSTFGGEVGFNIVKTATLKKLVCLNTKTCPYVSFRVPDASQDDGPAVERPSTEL

D(1A) dopamine receptor = D(1A) dopamine receptor (Homo sapiens, UniProt P21728)
D(1A) dopamine receptor, sequence (P21728 whole entry): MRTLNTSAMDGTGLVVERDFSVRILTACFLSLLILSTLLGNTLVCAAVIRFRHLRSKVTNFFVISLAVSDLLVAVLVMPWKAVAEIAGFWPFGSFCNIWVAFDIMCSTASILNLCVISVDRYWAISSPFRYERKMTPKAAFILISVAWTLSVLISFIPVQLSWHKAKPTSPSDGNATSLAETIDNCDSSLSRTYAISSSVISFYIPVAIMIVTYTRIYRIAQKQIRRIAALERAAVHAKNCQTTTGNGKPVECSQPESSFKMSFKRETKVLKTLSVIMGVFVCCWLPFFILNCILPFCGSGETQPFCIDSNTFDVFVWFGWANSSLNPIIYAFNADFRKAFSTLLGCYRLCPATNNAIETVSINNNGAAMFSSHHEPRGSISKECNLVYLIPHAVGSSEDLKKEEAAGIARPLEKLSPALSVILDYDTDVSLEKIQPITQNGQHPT

Histamine H3 receptor = Histamine H3 receptor (Homo sapiens, UniProt Q9Y5N1)
Histamine H3 receptor, sequence (Q9Y5N1 whole entry): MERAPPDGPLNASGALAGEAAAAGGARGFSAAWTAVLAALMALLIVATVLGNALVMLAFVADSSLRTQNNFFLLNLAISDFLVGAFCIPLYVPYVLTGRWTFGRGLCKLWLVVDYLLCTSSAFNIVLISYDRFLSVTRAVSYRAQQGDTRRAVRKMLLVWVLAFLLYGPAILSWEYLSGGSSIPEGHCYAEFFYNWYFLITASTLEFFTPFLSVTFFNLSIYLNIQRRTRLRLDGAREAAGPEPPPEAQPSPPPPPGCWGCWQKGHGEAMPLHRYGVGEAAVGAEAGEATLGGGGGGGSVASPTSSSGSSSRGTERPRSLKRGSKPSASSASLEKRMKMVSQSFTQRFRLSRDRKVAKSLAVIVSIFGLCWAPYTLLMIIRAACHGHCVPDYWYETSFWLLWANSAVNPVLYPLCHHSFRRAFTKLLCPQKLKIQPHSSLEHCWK

Prothrombin = Prothrombin (Homo sapiens, UniProt P00734); format: functional
Thromboxane A2 receptor [5] = target: T3, Thromboxane A2 receptor (Homo sapiens, UniProt P21731); format: functional, cell-based
T3 sequence (P21731 whole entry): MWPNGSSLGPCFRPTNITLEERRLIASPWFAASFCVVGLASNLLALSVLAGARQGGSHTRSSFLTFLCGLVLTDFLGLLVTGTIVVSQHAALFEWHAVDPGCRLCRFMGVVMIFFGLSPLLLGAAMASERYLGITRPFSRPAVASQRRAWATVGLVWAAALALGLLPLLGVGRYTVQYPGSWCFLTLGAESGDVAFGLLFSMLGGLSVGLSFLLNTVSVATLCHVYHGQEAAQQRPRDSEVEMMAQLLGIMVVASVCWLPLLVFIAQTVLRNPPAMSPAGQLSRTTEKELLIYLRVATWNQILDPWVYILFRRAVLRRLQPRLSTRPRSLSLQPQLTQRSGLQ

[6] = target: Voltage-gated inwardly rectifying potassium channel KCNH2 (Homo sapiens, UniProt Q12809); format: functional
Voltage-gated inwardly rectifying potassium channel KCNH2, sequence (Q12809 whole entry): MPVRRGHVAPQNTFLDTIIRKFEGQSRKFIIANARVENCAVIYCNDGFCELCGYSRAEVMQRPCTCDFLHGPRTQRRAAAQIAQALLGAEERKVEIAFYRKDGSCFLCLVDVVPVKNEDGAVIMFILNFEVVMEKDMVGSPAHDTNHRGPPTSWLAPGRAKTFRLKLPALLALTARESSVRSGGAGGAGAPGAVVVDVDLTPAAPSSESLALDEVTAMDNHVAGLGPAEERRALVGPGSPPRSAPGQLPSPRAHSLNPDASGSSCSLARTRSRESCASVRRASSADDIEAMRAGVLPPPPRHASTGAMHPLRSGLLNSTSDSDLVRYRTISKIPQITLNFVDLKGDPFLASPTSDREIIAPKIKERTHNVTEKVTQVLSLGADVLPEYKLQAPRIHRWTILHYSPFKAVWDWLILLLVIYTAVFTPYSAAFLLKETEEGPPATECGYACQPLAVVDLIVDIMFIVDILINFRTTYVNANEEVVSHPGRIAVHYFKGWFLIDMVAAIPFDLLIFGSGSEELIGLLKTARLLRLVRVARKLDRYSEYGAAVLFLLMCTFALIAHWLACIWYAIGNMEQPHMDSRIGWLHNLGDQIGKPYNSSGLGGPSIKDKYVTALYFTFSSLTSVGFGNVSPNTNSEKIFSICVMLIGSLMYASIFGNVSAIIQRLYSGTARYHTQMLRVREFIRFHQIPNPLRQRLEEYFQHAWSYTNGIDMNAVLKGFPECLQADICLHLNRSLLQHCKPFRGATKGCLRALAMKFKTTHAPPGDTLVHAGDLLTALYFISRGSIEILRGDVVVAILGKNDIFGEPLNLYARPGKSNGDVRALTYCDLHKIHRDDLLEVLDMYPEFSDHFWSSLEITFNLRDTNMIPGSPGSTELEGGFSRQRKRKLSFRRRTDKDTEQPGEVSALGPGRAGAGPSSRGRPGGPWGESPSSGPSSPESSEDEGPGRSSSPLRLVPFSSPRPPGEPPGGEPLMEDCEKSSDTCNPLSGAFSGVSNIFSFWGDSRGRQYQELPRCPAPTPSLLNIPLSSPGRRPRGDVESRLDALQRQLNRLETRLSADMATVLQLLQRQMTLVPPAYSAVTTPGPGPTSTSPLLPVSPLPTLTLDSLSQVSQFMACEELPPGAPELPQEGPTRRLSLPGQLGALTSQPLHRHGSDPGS

[7] = target: T4, 5-hydroxytryptamine receptor 1A (Homo sapiens, UniProt P08908)
T4 sequence (P08908 whole entry): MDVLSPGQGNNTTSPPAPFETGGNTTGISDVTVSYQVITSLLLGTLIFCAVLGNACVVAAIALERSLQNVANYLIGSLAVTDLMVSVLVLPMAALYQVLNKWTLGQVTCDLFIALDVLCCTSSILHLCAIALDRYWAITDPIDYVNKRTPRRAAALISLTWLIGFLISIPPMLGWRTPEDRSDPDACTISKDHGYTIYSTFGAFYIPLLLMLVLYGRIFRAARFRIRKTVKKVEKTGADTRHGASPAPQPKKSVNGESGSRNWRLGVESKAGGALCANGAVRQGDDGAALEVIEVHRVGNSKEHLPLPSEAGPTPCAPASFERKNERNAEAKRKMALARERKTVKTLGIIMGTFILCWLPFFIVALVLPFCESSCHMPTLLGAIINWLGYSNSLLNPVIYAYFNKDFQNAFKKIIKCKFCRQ

Thromboxane A2 receptor [8] = target: T3, Thromboxane A2 receptor; format: functional, cell-based; remark: listed apart in the source
[9] = target: T5, Alpha-2A adrenergic receptor (Homo sapiens, UniProt P08913)
T5 sequence (P08913 whole entry): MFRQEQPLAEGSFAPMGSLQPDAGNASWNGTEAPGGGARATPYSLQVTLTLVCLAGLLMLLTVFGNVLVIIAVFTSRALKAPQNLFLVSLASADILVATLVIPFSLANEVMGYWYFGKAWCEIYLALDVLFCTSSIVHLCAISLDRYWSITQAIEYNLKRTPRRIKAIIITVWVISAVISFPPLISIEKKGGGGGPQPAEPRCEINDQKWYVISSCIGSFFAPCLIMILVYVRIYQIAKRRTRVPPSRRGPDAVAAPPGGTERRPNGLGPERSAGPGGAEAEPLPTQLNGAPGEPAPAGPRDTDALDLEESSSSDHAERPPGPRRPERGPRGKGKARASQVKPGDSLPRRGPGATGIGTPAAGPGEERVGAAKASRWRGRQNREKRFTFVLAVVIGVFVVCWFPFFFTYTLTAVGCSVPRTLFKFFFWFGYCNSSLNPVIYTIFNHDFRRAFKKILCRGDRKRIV
Further: assay procedure not described here.

CCCc1nc2c(C)cc(-c3nc4ccccc4n3C)cc2n1Cc1ccc(-c2ccccc2C(=O)O)cc1
AC50 [1]: > 30 µM
AC50 [2]: 9.55 µM
AC50 [3]: > 30 µM
AC50 (D(3) dopamine receptor): > 30 µM
AC50 [4]: > 30 µM
AC50 (D(1A) dopamine receptor): > 30 µM
AC50 (Histamine H3 receptor): > 30 µM
AC50 (Prothrombin): > 30 µM
AC50 (Thromboxane A2 receptor [5]): 14.5 µM
AC50 [6]: > 30 µM
AC50 [7]: > 30 µM
AC50 (Thromboxane A2 receptor [8]): > 1 µM
AC50 [9]: > 30 µM

CC(=O)NO [ACETOHYDROXAMIC ACID]
AC50 [1]: > 30 µM
AC50 [2]: > 30 µM
AC50 [3]: > 30 µM
AC50 (D(3) dopamine receptor): > 30 µM
AC50 [4]: > 30 µM
AC50 (D(1A) dopamine receptor): > 30 µM
AC50 (Histamine H3 receptor): > 30 µM
AC50 (Prothrombin): > 30 µM
AC50 (Thromboxane A2 receptor [5]): > 30 µM
AC50 [7]: > 30 µM
AC50 (Thromboxane A2 receptor [8]): > 30 µM
AC50 [9]: > 30 µM

O=C(O)c1ccccc1 [BENZOIC ACID]
AC50 [1]: > 30 µM
AC50 [2]: > 30 µM
AC50 [3]: > 30 µM
AC50 (D(3) dopamine receptor): > 30 µM
AC50 [4]: > 30 µM
AC50 (D(1A) dopamine receptor): > 30 µM
AC50 (Histamine H3 receptor): > 30 µM
AC50 (Prothrombin): > 30 µM
AC50 (Thromboxane A2 receptor [5]): > 30 µM
AC50 [7]: > 30 µM
AC50 (Thromboxane A2 receptor [8]): > 30 µM
AC50 [9]: > 30 µM

Cc1cc(C2CCCCC2)n(O)c(=O)c1 [CICLOPIROX]
AC50 [1]: > 30 µM
AC50 [2]: 23.1 µM
AC50 [3]: > 30 µM
AC50 (D(3) dopamine receptor): > 30 µM
AC50 [4]: > 30 µM
AC50 (D(1A) dopamine receptor): > 30 µM
AC50 (Histamine H3 receptor): > 30 µM
AC50 (Prothrombin): > 30 µM
AC50 (Thromboxane A2 receptor [5]): 25.4 µM
AC50 [6]: > 30 µM
AC50 [7]: > 30 µM
AC50 [9]: > 30 µM

CCCCc1oc2ccc(NS(C)(=O)=O)cc2c1C(=O)c1ccc(OCCCN(CCCC)CCCC)cc1 [DRONEDARONE]
AC50 [1]: 2.39 µM
AC50 [2]: > 30 µM
AC50 [3]: 3.98 µM
AC50 (D(3) dopamine receptor): 0.642 µM
AC50 [4]: > 30 µM
AC50 (D(1A) dopamine receptor): 5.4 µM
AC50 (Histamine H3 receptor): 28.4 µM
AC50 (Prothrombin): > 30 µM
AC50 (Thromboxane A2 receptor [5]): > 30 µM
AC50 [7]: 1.72 µM
AC50 (Thromboxane A2 receptor [8]): 14.7 µM
AC50 [9]: 13.4 µM

CC(C)C(=O)Oc1ccc(CO)cc1[C@H](CCN(C(C)C)C(C)C)c1ccccc1 [FESOTERODINE]
AC50 [1]: 0.414 µM
AC50 [2]: > 30 µM
AC50 [3]: > 30 µM
AC50 (D(3) dopamine receptor): > 30 µM
AC50 [4]: > 30 µM
AC50 (D(1A) dopamine receptor): > 30 µM
AC50 (Histamine H3 receptor): > 30 µM
AC50 (Prothrombin): > 30 µM
AC50 (Thromboxane A2 receptor [5]): > 30 µM
AC50 [7]: > 30 µM
AC50 (Thromboxane A2 receptor [8]): > 30 µM
AC50 [9]: > 30 µM

N=C(N)N/N=C/c1c(Cl)cccc1Cl [GUANABENZ]
AC50 [1]: > 30 µM
AC50 [2]: 0.0423 µM
AC50 [3]: 8.81 µM
AC50 (D(3) dopamine receptor): 10.5 µM
AC50 [4]: > 30 µM
AC50 (D(1A) dopamine receptor): 8.03 µM
AC50 (Histamine H3 receptor): > 30 µM
AC50 (Prothrombin): > 30 µM
AC50 (Thromboxane A2 receptor [5]): > 30 µM
AC50 [6]: > 30 µM
AC50 [7]: 0.604 µM
AC50 (Thromboxane A2 receptor [8]): 22.2 µM

C[N+](C)(CCCCCC[N+](C)(C)C1c2ccccc2-c2ccccc21)C1c2ccccc2-c2ccccc21 [HEXAFLUORENIUM]
AC50 [1]: 0.514 µM
AC50 [2]: > 30 µM
AC50 [3]: 1.44 µM
AC50 (D(3) dopamine receptor): 0.0671 µM
AC50 [4]: > 30 µM
AC50 (D(1A) dopamine receptor): 19.3 µM
AC50 (Histamine H3 receptor): 2.72 µM
AC50 (Prothrombin): > 30 µM
AC50 (Thromboxane A2 receptor [5]): > 30 µM
AC50 [7]: 0.868 µM
AC50 (Thromboxane A2 receptor [8]): > 30 µM
AC50 [9]: 2.19 µM

C[N+]1(C)CCCC(OC(=O)C(O)(c2ccccc2)c2ccccc2)C1 (stereo unspecified) [MEPENZOLATE]
AC50 [2]: > 30 µM
AC50 [3]: > 30 µM
AC50 (D(3) dopamine receptor): > 30 µM
AC50 [4]: > 30 µM
AC50 (D(1A) dopamine receptor): > 30 µM
AC50 (Histamine H3 receptor): > 30 µM
AC50 (Prothrombin): > 30 µM
AC50 (Thromboxane A2 receptor [5]): > 30 µM
AC50 [6]: 13 µM
AC50 [7]: > 30 µM
AC50 (Thromboxane A2 receptor [8]): > 30 µM
AC50 [9]: > 30 µM

C[N+](C)(C)CCOC(=O)CCC(=O)OCC[N+](C)(C)C [SUXAMETHONIUM]
AC50 [1]: > 30 µM
AC50 [2]: 0.667 µM
AC50 [3]: > 30 µM
AC50 (D(3) dopamine receptor): > 30 µM
AC50 [4]: > 30 µM
AC50 (D(1A) dopamine receptor): > 30 µM
AC50 (Histamine H3 receptor): > 30 µM
AC50 (Prothrombin): > 30 µM
AC50 (Thromboxane A2 receptor [5]): > 30 µM
AC50 [7]: > 30 µM
AC50 (Thromboxane A2 receptor [8]): > 30 µM
AC50 [9]: 16.6 µM
